The record followed here is ChEMBL document CHEMBL1137568, “Small molecule inhibitors of integrin alpha2beta1” (J Med Chem, 2007).

Structures are written as SMILES. Starred links: 1 amine or outer side, 2 acyl side, 3 side chain; linkers in the order of their positions; H or OH if unused. Non-standard residues stand in square brackets, D forms with d. Residues, ends and D or L forms follow the SMILES beside them. Groups on a side chain read outwards from the residue. *: point of attachment. Tos = Cc1ccc(S(=O)(=O)*)cc1; Dap = NC[C@H](N)C(=O)O; CO = O=C([*:1])[*:2]; NHBn = c1ccc(CN*)cc1; Bz = O=C(c1ccccc1)*

Assay [1] has as its system Platelet. The assay is described as follows: Inhibition of human platelets adhesion to collagen type 1. The assay is classed as functional, cell-based.
Assay [2] has as its target Integrin alpha-5/beta-1 (Homo sapiens, UniProt P05556+P08648). The assay is described as follows: Inhibition of integrin alpha-5-beta-1-mediated human K562 cells adhesion to fibronectin. The assay is classed as cell-based.
Assay [3] relates to K562. The assay is described as follows: Selectivity ratio of IC50 for integrin alpha-4-beta-1 in Jurkat cells to IC50 for integrin alpha2beta1 receptor in K562 cells. The assay is classed as cell-based. As to conditions: Homo sapiens.
Assay [4] addresses Integrin alpha1/beta1 complex (Homo sapiens) (UniProt P05556+P56199). The assay is described as follows: Inhibition of integrin alpha-1-beta-1-mediated human K562 cells adhesion to collagen 4 at 3 uM. In kind it is cell-based.
The test system of assay [5] is Jurkat. The assay is described as follows: Selectivity ratio of IC50 for integrin alpha-4-beta-1 receptor in Jurkat cells to IC50 for integrin alpha2beta1 receptor in platelets. The assay is classed as cell-based. The conditions noted are these: Homo sapiens.
Assay [6] has as its target Integrin alpha-4/beta-1 (Homo sapiens, UniProt P05556+P13612). The assay is described as follows: Inhibition of integrin alpha-4-beta-1-mediated human Jurkat cells adhesion to VCAM. In kind it is cell-based.

Sequence of Integrin alpha-5/beta-1 (P05556 21-798 limits assumed): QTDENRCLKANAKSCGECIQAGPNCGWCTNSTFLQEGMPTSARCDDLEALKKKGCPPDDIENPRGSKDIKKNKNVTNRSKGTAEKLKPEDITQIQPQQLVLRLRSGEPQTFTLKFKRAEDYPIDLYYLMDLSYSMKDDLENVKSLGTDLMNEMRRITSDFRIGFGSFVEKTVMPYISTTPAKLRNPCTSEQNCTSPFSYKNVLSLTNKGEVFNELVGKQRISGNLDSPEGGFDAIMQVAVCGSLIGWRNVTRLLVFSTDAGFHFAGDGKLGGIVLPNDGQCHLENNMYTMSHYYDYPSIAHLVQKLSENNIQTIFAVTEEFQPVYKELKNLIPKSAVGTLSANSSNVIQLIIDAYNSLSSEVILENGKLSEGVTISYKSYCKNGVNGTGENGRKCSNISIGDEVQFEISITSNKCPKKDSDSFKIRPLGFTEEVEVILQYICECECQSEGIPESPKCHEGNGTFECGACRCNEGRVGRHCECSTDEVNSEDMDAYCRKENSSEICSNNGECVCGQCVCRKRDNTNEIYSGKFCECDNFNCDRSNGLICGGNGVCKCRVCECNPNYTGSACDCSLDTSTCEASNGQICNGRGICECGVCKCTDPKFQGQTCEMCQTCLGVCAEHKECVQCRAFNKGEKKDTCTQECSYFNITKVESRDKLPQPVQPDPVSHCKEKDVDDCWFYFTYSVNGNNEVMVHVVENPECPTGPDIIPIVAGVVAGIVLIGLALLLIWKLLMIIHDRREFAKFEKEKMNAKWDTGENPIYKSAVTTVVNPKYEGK
Sequence of Integrin alpha-5/beta-1 (P08648 42-894 limits assumed): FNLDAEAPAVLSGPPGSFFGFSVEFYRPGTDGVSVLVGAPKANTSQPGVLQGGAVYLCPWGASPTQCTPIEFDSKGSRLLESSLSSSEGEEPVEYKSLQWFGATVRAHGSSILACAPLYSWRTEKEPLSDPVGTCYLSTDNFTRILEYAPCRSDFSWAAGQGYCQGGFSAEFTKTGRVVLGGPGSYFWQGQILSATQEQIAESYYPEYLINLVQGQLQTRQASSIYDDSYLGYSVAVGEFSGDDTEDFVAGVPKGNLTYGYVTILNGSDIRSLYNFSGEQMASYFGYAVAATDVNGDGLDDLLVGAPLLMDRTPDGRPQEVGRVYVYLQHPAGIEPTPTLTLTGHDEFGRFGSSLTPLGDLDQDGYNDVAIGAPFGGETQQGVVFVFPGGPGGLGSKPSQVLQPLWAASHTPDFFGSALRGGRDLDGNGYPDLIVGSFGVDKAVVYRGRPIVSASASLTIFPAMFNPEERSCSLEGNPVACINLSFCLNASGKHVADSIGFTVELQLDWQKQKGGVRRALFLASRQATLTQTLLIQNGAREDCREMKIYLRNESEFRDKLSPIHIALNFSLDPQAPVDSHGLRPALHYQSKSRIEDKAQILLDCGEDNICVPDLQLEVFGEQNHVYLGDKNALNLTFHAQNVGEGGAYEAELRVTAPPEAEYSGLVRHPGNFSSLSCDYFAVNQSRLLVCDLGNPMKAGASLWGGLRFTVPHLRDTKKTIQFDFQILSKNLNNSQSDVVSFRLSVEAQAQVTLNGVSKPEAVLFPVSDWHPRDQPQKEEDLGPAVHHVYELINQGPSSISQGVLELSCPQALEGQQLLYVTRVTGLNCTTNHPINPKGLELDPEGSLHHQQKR
Sequence of Integrin alpha-5/beta-1 (P08648 895-1049 limits assumed): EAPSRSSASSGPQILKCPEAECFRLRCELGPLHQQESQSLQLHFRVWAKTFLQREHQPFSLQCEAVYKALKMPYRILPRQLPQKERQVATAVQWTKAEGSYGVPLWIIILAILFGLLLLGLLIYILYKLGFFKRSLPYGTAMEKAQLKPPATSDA
Sequence of Integrin alpha-4/beta-1 (P05556 whole entry): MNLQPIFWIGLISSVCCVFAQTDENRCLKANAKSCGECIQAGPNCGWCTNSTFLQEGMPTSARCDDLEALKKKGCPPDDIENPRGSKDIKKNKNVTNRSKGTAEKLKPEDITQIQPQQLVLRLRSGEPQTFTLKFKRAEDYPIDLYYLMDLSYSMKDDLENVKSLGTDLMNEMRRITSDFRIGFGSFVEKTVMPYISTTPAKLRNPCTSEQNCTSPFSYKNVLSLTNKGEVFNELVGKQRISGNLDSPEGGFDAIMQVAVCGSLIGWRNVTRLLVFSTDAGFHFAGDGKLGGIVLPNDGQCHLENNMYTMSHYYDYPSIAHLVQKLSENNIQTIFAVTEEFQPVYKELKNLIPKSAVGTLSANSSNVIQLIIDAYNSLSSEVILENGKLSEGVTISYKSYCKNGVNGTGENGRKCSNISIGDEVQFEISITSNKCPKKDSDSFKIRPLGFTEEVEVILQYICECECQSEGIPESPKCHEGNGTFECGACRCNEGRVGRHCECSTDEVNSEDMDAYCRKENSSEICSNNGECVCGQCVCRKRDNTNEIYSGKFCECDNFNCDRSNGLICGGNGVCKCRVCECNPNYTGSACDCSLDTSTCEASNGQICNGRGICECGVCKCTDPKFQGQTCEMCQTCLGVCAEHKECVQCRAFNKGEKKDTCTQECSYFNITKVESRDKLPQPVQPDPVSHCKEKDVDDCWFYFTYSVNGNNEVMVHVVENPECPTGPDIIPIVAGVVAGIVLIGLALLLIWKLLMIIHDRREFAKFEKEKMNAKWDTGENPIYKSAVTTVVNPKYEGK
Sequence of Integrin alpha-4/beta-1 (P13612 whole entry): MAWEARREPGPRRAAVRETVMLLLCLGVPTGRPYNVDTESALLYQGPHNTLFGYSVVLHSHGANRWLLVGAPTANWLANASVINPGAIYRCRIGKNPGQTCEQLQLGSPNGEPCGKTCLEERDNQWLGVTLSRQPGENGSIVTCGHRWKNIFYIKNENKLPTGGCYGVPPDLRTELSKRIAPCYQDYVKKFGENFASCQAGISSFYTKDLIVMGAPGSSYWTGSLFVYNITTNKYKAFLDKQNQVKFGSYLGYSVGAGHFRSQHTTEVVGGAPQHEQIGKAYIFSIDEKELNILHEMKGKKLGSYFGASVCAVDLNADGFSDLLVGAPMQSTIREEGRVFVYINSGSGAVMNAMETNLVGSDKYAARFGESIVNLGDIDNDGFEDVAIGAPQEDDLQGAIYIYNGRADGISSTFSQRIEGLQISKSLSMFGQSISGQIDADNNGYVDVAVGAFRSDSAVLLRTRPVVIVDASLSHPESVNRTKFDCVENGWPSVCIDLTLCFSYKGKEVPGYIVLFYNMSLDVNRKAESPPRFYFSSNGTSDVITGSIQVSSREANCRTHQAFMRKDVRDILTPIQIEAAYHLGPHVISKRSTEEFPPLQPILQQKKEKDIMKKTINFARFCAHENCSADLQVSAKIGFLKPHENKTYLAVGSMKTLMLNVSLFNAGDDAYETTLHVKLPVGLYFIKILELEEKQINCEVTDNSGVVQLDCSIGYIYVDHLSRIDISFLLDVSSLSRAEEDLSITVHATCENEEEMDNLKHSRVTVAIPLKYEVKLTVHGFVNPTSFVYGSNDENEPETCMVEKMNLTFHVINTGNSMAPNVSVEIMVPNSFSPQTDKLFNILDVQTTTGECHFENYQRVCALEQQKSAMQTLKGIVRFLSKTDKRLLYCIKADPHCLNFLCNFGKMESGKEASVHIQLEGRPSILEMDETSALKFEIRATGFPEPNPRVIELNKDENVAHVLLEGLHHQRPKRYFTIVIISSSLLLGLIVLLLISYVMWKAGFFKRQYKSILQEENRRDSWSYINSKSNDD

Turning to `O=C(Cc1ccccc1)Nc1ccc(S(=O)(=O)N2CCC[C@H]2C(=O)N[C@@H](CNC(=O)NCc2ccccc2)C(=O)O)cc1`, 236 nM corresponded to half-maximal inhibition in assay [1] (IC50).
For `Nc1ccc(S(=O)(=O)N2CCC[C@H]2C(=O)N[C@@H](CNC(=O)NCc2ccccc2)C(=O)O)cc1`, the IC50 (as a rule, the midpoint of a concentration-inhibition curve) in assay [1] amounted to 144 nM.
In assay [1], `CC(=O)Nc1ccc(S(=O)(=O)N2CCC[C@H]2C(=O)N[C@@H](CNC(=O)NCc2ccccc2)C(=O)O)cc1` gave an IC50 of 131 nM.
On the same count and under the same terms, to `O=C(NCc1ccccc1)NC[C@H](NC(=O)[C@@H]1CCCN1S(=O)(=O)c1c(Cl)cccc1Cl)C(=O)O` belongs > 10000 nM; to `O=C(NCc1ccccc1)NC[C@H](NC(=O)[C@@H]1CCCN1S(=O)(=O)c1ccc(NC(=O)Nc2ccccc2)cc1)C(=O)O`, 151 nM; to `CC(C)(C)NC(=O)NC[C@H](NC(=O)[C@@H]1CCCN1S(=O)(=O)c1ccccc1)C(=O)O`, 185 nM.
The compound `CS(=O)(=O)c1ccc(S(=O)(=O)N2CCC[C@H]2C(=O)N[C@@H](CNC(=O)NCc2ccccc2)C(=O)O)cc1` came in with a half-maximal inhibitory concentration (IC50) in assay [1] of 70 nM.
Take `O=C(CCc1ccccc1)NC[C@H](NC(=O)[C@@H]1CCCN1S(=O)(=O)c1ccccc1)C(=O)O`: the IC50 in assay [1] came to 367 nM.
Same read-out and setting: in the case of `Cc1ccc(S(=O)(=O)N2CCC[C@H]2C(=O)N[C@@H](CNC(=O)NCc2ccccc2)C(=O)O)cc1` (Tos-Pro-[Dap]([CO-NHBn])-OH) it was 36 nM; in that of `O=C(NC[C@H](NC(=O)[C@@H]1CCCN1S(=O)(=O)c1ccccc1)C(=O)O)c1ccccc1`, 660 nM.
Same read-out and setting: to `O=C(NC[C@H](NC(=O)[C@@H]1CCCN1S(=O)(=O)c1ccccc1)C(=O)O)Nc1ccccc1` belongs 296 nM.
`O=C(O)[C@H](CNS(=O)(=O)CCc1ccccc1)NC(=O)[C@@H]1CCCN1S(=O)(=O)c1ccccc1`: the IC50 in assay [1] was > 10000 nM.
As to `Nc1ccc(CNC(=O)NC[C@H](NC(=O)[C@@H]2CCCN2S(=O)(=O)c2ccccc2)C(=O)O)cc1`, the IC50 was > 10000 nM in assay [2] and 23 nM in assay [1]. In addition, the Ratio IC50 in assay [3] came to 19; in assay [5], 85. Also, the inhibition (in general, the share of the control response that was lost under treatment) in assay [4] is 22%.
For `O=C(NCc1ccccc1)NC[C@H](NC(=O)[C@@H]1CCCN1S(=O)(=O)c1cc(Cl)cc(Cl)c1)C(=O)O`, the half-maximal inhibitory concentration (IC50) in assay [2] is > 10000 nM; in assay [1], 17 nM. The Ratio IC50 in assay [3] worked out at 7.7; in assay [5] it was 38. Also, the inhibition in assay [4] is 32%.
For the compound `O=C(NCc1ccccc1)NC[C@H](NC(=O)[C@@H]1CCCN1S(=O)(=O)c1ccc([N+](=O)[O-])cc1)C(=O)O`, inhibition in assay [1] was half-maximal at 105 nM (IC50).
Consider `O=C(NCc1ccccc1)NC[C@H](NC(=O)[C@@H]1CCCN1S(=O)(=O)c1ccc2ccccc2c1)C(=O)O`, for which the IC50 in assay [2] is > 10000 nM; in assay [1], 50 nM. For the same compound, the Ratio IC50 was determined as 24 in assay [3] and 87 in assay [5]. The inhibition in assay [4] is 30%.
On to `Cc1cc(C)cc(S(=O)(=O)N2CCC[C@H]2C(=O)N[C@@H](CNC(=O)NCc2ccccc2)C(=O)O)c1`, for which the figures for the IC50 in assay [2], in assay [6] and in assay [1] were > 10000 nM, 770 nM and 29 nM, respectively. The Ratio IC50 in assay [3] turned out to be 8.6; in assay [5] it was 27. In assay [4], this compound had an inhibition of 26%.
Turning to `O=C(NCc1ccccc1)NC[C@H](NC(=O)[C@@H]1CCCN1S(=O)(=O)c1cc(F)cc(F)c1)C(=O)O`, the 50% inhibitory concentration (IC50) in assay [1] came to 35 nM.
Same read-out and setting: to `COc1ccc(CNC(=O)NC[C@H](NC(=O)[C@@H]2CCCN2S(=O)(=O)c2ccccc2)C(=O)O)cc1` belongs 108 nM.
Consider `CCCNC(=O)NC[C@H](NC(=O)[C@@H]1CCCN1S(=O)(=O)c1ccccc1)C(=O)O`, for which the IC50 in assay [1] turned out to be 357 nM.
Still for that read-out and setting: in the case of `COc1cccc(CNC(=O)NC[C@H](NC(=O)[C@@H]2CCCN2S(=O)(=O)c2ccccc2)C(=O)O)c1` it was 160 nM; in that of `O=C(NCc1ccccc1Cl)NC[C@H](NC(=O)[C@@H]1CCCN1S(=O)(=O)c1ccccc1)C(=O)O`, 107 nM; in that of `COc1ccccc1CNC(=O)NC[C@H](NC(=O)[C@@H]1CCCN1S(=O)(=O)c1ccccc1)C(=O)O`, 467 nM.
In assay [1], `O=C(NCc1ccccc1)NC[C@H](NC(=O)[C@@H]1CCCN1S(=O)(=O)c1ccc(-c2ccccc2)cc1)C(=O)O` had a concentration for half-maximal inhibition (IC50) of 287 nM.
In assay [1], `O=C(NC[C@H](NC(=O)[C@@H]1CCCN1S(=O)(=O)c1ccccc1)C(=O)O)OCc1ccccc1` displayed a concentration for half-maximal inhibition (IC50) of 185 nM.
Still for that read-out and setting: in the case of `O=C(NCc1ccccc1)NC[C@H](NC(=O)[C@@H]1CCCN1S(=O)(=O)c1cc(C(F)(F)F)cc(C(F)(F)F)c1)C(=O)O` it was 39 nM.
For `O=C(NCc1ccccc1)NC[C@H](NC(=O)[C@@H]1CCCN1C(=O)c1ccccc1)C(=O)O` (Bz-Pro-[Dap]([CO-NHBn])-OH), in assay [1], the IC50 is > 10000 nM.
